{"source": "patent US10316017B2", "about": "“COT modulators and methods of use thereof” (Gilead Sciences, Inc., priority 2015, dated 2019)", "key": {"[1]": {"target": "T1, human Cot catalytic domain (30-397 amino acids) (Homo sapiens, UniProt P41279)", "T1 construct": "Purified recombinant human Cot catalytic domain (30-397 amino acids) was purchased from Cama Biosciences; purchased Cama Biosciences (so in the source)", "T1 sequence (P41279 30-397)": "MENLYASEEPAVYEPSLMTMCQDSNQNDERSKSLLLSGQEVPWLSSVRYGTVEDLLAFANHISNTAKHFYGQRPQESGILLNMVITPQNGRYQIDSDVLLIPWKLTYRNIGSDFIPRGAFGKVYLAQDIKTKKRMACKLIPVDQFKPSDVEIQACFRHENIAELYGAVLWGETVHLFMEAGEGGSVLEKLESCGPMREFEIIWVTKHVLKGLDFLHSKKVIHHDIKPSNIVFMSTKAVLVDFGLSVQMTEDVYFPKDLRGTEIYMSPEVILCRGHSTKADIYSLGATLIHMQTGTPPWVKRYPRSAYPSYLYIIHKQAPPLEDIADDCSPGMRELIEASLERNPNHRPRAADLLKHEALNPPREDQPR", "assay": "High Throughput Cot Biochemical Assay (KinEASE TR-FRET)", "settings": "Cot KinEASE TR-FRET, 400 μM ATP; read-out: IC50 HTRF", "outline": "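TR-FRET (KinEASE) read-out: Eu-labelled phospho-specific antibody binds XL665-tagged STK3 peptide (1 μM) phosphorylated by 5 nM human Cot kinase domain (residues 30-397). Reaction at 400 μM ATP, pH 7.0 MOPS buffer with 10 mM MgOAc, 1 mM DTT and 0.1% DMSO.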"}, "[2]": {"test_system": "TNFα production in LPS-stimulated human monocytes", "assay": "Cot Monocyte TNFα Cell Based Assay", "settings": "Homo sapiens, Monocyte, read-out: EC50 TNF", "outline": "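TNFα release quantified by two-antibody TR-FRET, normalised to unstimulated (0%) and LPS-stimulated (100%) wells. Cells got a 1 h compound exposure at 37° C in 0.5% DMSO before 4 h challenge with 50 pg/ml LPS, at 5,000 cells/well.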"}, "[3]": {"settings": "LPS-stimulated human monocytes, TNFα TR-FRET"}}, "note": "Read-outs that look alike come from different tables or passages of the source."}
{"molecule": "CC(C)(C)CNc1c(C#N)cnc2c(Cl)cc(N[C@@H](c3ccc(F)cc3)c3cn(C4(C(N)=O)CC4)nn3)cc12", "note": "[Example 996, (S)-1-(4-(((8-chloro-3-cyano-4-(neopentylamino)quinolin-6-yl)amino)(4-fluorophenyl)methyl)-1H-1,2,3-triazol-1-yl)cyclopropane-1-carboxamide]", "values": [{"measurement": "IC50", "setting": "[1]", "value": 0.006, "unit": "µM"}, {"measurement": "EC50", "setting": "[2]; [3]", "value": 0.109, "unit": "µM"}]}
{"molecule": "CC(C)(C)CNc1c(C#N)cnc2c(Cl)cc(N[C@@H](c3ccc(F)cc3)c3cn(C4(c5cccnc5)CC4)nn3)cc12", "note": "[Example 997, (S)-8-chloro-6-(((4-fluorophenyl)(1-(1-(pyridin-3-yl)cyclopropyl)-1H-1,2,3-triazol-4-yl)methyl)amino)-4-(neopentylamino) quinoline-3-carbonitrile]", "values": [{"measurement": "IC50", "setting": "[1]", "value": 0.048, "unit": "µM"}, {"measurement": "EC50", "setting": "[2]; [3]", "value": 0.061, "unit": "µM"}]}
{"molecule": "CC(C)(C)CNc1c(C#N)cnc2c(Cl)cc(N[C@@H](c3ccc(F)cc3)c3cn(C4(C(F)(F)F)CCC4)nn3)cc12", "note": "[Example 998, (S)-8-chloro-6-(((4-fluorophenyl)(1-(1-(trifluoromethyl)cyclobutyl)-1H-1,2,3-triazol-4-yl)methyl)amino)-4-(neopentylamino)quinoline-3-carbonitrile]", "values": [{"measurement": "IC50", "setting": "[1]", "value": 0.053, "unit": "µM"}, {"measurement": "EC50", "setting": "[2]; [3]", "value": 0.25, "unit": "µM"}]}
{"molecule": "CC(C)(C)CNc1c(C#N)cnc2c(F)cc(N[C@H](c3cn(C4(C(N)=O)CC4)nn3)c3ccccc3Cl)cc12", "note": "[Example 999, (S)-1-(4-((2-chlorophenyl)((3-cyano-8-fluoro-4-(neopentylamino)quinolin-6-yl)amino)methyl)-1H-1,2,3-triazol-1-yl)cyclopropane-1-carboxamide]", "values": [{"measurement": "IC50", "setting": "[1]", "value": 0.063, "unit": "µM"}, {"measurement": "EC50", "setting": "[2]; [3]", "value": 0.306, "unit": "µM"}]}
{"molecule": "CC(C)(C)CNc1c(C#N)cnc2c(F)cc(N[C@H](c3cn(C4(C#N)CC4)nn3)c3ccccc3Cl)cc12", "note": "[Example 1000, (S)-6-(((2-chlorophenyl)(1-(1-cyanocyclopropyl)-1H-1,2,3-triazol-4-yl)methyl)amino)-8-fluoro-4-(neopentylamino)quinoline-3-carbonitrile]", "values": [{"measurement": "IC50", "setting": "[1]", "value": 0.058, "unit": "µM"}, {"measurement": "EC50", "setting": "[2]; [3]", "value": 0.177, "unit": "µM"}]}
{"molecule": "CC(C)(C)CNc1c(C#N)cnc2c(F)cc(N[C@H](c3cn(C(F)(F)C(N)=O)nn3)c3ccccc3Cl)cc12", "note": "[Example 1001, (S)-2-(4-((2-chlorophenyl)((3-cyano-8-fluoro-4-(neopentylamino)quinolin-6-yl)amino)methyl)-1H-1,2,3-triazol-1-yl)-2,2-difluoroacetamide]", "values": [{"measurement": "IC50", "setting": "[1]", "value": 0.022, "unit": "µM"}, {"measurement": "EC50", "setting": "[2]; [3]", "value": 0.344, "unit": "µM"}]}
{"molecule": "CC(C)(C)CNc1c(C#N)cnc2c(Cl)cc(N[C@@H](c3ccc(F)cc3)c3cn(CC(F)F)nn3)cc12", "note": "[Example 1002, (S)-8-chloro-6-(((1-(2,2-difluoroethyl)-1H-1,2,3-triazol-4-yl) (4-fluorophenyl)methyl)amino)-4-(neopentylamino) quinoline-3-carbonitrile]", "values": [{"measurement": "IC50", "setting": "[1]", "value": 0.014, "unit": "µM"}, {"measurement": "EC50", "setting": "[2]; [3]", "value": 0.202, "unit": "µM"}]}
{"molecule": "CC(C)(C)CNc1c(C#N)cnc2c(Cl)cc(N[C@H](c3cn(C4CC4)nn3)c3cccc4ccccc34)cc12", "note": "[Example 1003, (S)-8-chloro-6-(((1-cyclopropyl-1H-1,2,3-triazol-4-yl)(naphthalen-1-yl)methyl)amino)-4-(neopentylamino)quinoline-3-carbonitrile]", "values": [{"measurement": "IC50", "setting": "[1]", "value": 0.019, "unit": "µM"}, {"measurement": "EC50", "setting": "[2]; [3]", "value": 0.227, "unit": "µM"}]}
{"molecule": "[2H][C@@](Nc1cc(C#N)c2ncc(C#N)c(NCC(C)(C)C)c2c1)(c1cn(-c2cccnc2)nn1)c1ccccc1Cl", "note": "[Example 1004, (S)-6-(((2-chlorophenyl)(1-(pyridin-3-yl)-1H-1,2,3-triazol-4-yl)methyl-d)amino)-4-(neopentylamino)quinoline-3,8-dicarbonitrile]", "values": [{"measurement": "IC50", "setting": "[1]", "value": 0.033, "unit": "µM"}, {"measurement": "EC50", "setting": "[2]; [3]", "value": "≥ 1", "unit": "µM"}]}
{"molecule": "[2H][C@](Nc1cc(C#N)c2ncc(C#N)c(NCC(C)(C)C)c2c1)(c1cccc(C#N)c1)c1cn(-c2cccnc2)nn1", "note": "[Example 1005, (S)-6-(((3-cyanophenyl)(1-(pyridin-3-yl)-1H-1,2,3-triazol-4-yl)methyl-d)amino)-4-(neopentylamino) quinoline-3,8-dicarbonitrile]", "values": [{"measurement": "IC50", "setting": "[1]", "value": "≥ 10", "unit": "µM"}, {"measurement": "EC50", "setting": "[2]; [3]", "value": "≥ 1", "unit": "µM"}]}
{"molecule": "[2H][C@](Nc1cc(C#N)c2ncc(C#N)c(NCC(C)(C)C)c2c1)(c1ccc(F)cc1)c1cn(C2(CF)CC2)nn1", "note": "[Example 1006, (S)-6-(((1-(1-(fluoromethyl)cyclopropyl)-1H-1,2,3-triazol-4-yl)(4-fluorophenyl)methyl-d)amino)-4-(neopentylamino)quinoline-3,8-dicarbonitrile]", "values": [{"measurement": "IC50", "setting": "[1]", "value": 0.009, "unit": "µM"}, {"measurement": "EC50", "setting": "[2]; [3]", "value": 0.072, "unit": "µM"}]}
{"molecule": "[2H][C@](Nc1cc(C#N)c2ncc(C#N)c(NCC(C)(C)C)c2c1)(c1cccc(C#N)c1)c1cn(C2(CF)CC2)nn1", "note": "[Example 1007, (S)-6-(((3-cyanophenyl)(1-(1-(fluoromethyl)cyclopropyl)-1H-1,2,3-triazol-4-yl)methyl-d)amino)-4-(neopentylamino)quinoline-3,8-dicarbonitrile]", "values": [{"measurement": "IC50", "setting": "[1]", "value": 0.002, "unit": "µM"}, {"measurement": "EC50", "setting": "[2]; [3]", "value": 0.066, "unit": "µM"}]}
{"molecule": "Cc1c(C#N)cccc1[C@H](Nc1cc(Cl)c2ncc(C#N)c(NCC(C)(C)C)c2c1)c1cn(C2(C(N)=O)CC2)nn1", "note": "[Example 1008, (S)-1-(4-(((8-chloro-3-cyano-4-(neopentylamino)quinolin-6-yl)amino)(3-cyano-2-methylphenyl)methyl)-1H-1,2,3-triazol-1-yl)cyclopropane-1-carboxamide]", "values": [{"measurement": "IC50", "setting": "[1]", "value": 0.001, "unit": "µM"}, {"measurement": "EC50", "setting": "[2]; [3]", "value": 0.123, "unit": "µM"}]}
{"molecule": "Cc1c(C#N)cccc1[C@H](Nc1cc(Cl)c2ncc(C#N)c(NCC(C)(C)C)c2c1)c1cn(C2(C(N)=O)CCC2)nn1", "note": "[Example 1009, (S)-1-(4-(((8-chloro-3-cyano-4-(neopentylamino)quinolin-6-yl)amino)(3-cyano-2-methylphenyl)methyl)-1H-1,2,3-triazol-1-yl)cyclobutane-1-carboxamide]", "values": [{"measurement": "IC50", "setting": "[1]", "value": 0.001, "unit": "µM"}, {"measurement": "EC50", "setting": "[2]; [3]", "value": 0.067, "unit": "µM"}]}
{"molecule": "[2H][C@](Nc1cc(Cl)c2ncc(C#N)c(NCC(C)(C)C)c2c1)(c1ccc(Cl)cc1)c1cn(C23CCN(CC2)CC3)nn1", "note": "[Example 1010, (S)-8-chloro-6-(((4-chlorophenyl)(1-(quinuclidin-4-yl)-1H-1,2,3-triazol-4-yl)methyl-d)amino)-4-(neopentylamino)quinoline-3-carbonitrile]", "values": [{"measurement": "IC50", "setting": "[1]", "value": 0.069, "unit": "µM"}, {"measurement": "EC50", "setting": "[2]", "value": 0.928, "unit": "µM"}]}
{"molecule": "CC(C)(C)CNc1c(C#N)cnc2c(C#N)cc(N[C@H](c3cn(C4(c5ccncc5)CC4)nn3)c3ccccc3Cl)cc12", "note": "[Example 1011, (S)-6-(((2-chlorophenyl)(1-(1-(pyridin-4-yl)cyclopropyl)-1H-1,2,3-triazol-4-yl)methyl)amino)-4-(neopentylamino) quinoline-3,8-dicarbonitrile]", "values": [{"measurement": "IC50", "setting": "[1]", "value": 0.003, "unit": "µM"}, {"measurement": "EC50", "setting": "[2]; [3]", "value": 0.022, "unit": "µM"}]}
{"molecule": "Cc1c(C#N)cccc1[C@H](Nc1cc(Cl)c2ncc(C#N)c(NCC(C)(C)C)c2c1)c1cn(C2(C(F)F)CC2)nn1", "note": "[Example 1012, (S)-8-chloro-6-(((3-cyano-2-methylphenyl)(1-(1-(difluoromethyl)cyclopropyl)-1H-1,2,3-triazol-4-yl)methyl)amino)-4-(neopentylamino)quinoline-3-carbonitrile]", "values": [{"measurement": "IC50", "setting": "[1]", "value": 0.003, "unit": "µM"}, {"measurement": "EC50", "setting": "[2]; [3]", "value": 0.036, "unit": "µM"}]}
{"molecule": "Cc1c(C#N)cccc1[C@H](Nc1cc(C#N)c2ncc(C#N)c(NCC(C)(C)C)c2c1)c1cn(C2(C(F)F)CC2)nn1", "note": "[Example 1013, (S)-6-(((3-cyano-2-methylphenyl)(1-(1-(difluoromethyl)cyclopropyl)-1H-1,2,3-triazol-4-yl)methyl)amino)-4-(neopentylamino)quinoline-3,8-dicarbonitrile]", "values": [{"measurement": "IC50", "setting": "[1]", "value": 0.002, "unit": "µM"}, {"measurement": "EC50", "setting": "[2]; [3]", "value": 0.023, "unit": "µM"}]}
{"molecule": "CC(C)(C)CNc1c(C#N)cnc2c(C#N)cc(N[C@H](c3cn(C4(C(N)=O)CCC4)nn3)c3ccccc3Cl)cc12", "note": "[Example 1014, (S)-1-(4-((2-chlorophenyl) ((3,8-dicyano-4-(neopentylamino)quinolin-6-yl)amino)methyl)-1H-1,2,3-triazol-1-yl)cyclobutane-1-carboxamide]", "values": [{"measurement": "IC50", "setting": "[1]", "value": 0.003, "unit": "µM"}, {"measurement": "EC50", "setting": "[2]; [3]", "value": 0.106, "unit": "µM"}]}
{"molecule": "CC(C)(C)CNc1c(C#N)cnc2c(F)cc(N[C@H](c3cn(C4CC4)nn3)c3ccccc3Cl)cc12", "note": "[Example 1015, (S)-6-(((2-chlorophenyl)(1-cyclopropyl-1H-1,2,3-triazol-4-yl)methyl)amino)-8-fluoro-4-(neopentylamino)quinoline-3-carbonitrile]", "values": [{"measurement": "IC50", "setting": "[1]", "value": 0.014, "unit": "µM"}, {"measurement": "EC50", "setting": "[2]; [3]", "value": 0.462, "unit": "µM"}]}
{"molecule": "[2H][C@](Nc1cc(Cl)c2ncc(C#N)c(NCC(C)(C)c3ccccn3)c2c1)(c1ccc(F)cc1)c1cn(C2CC2)nn1", "note": "[Example 1016, (S)-8-chloro-6-(((1-cyclopropyl-1H-1,2,3-triazol-4-yl)(4-fluorophenyl)methyl-d)amino)-4-((2-methyl-2-(pyridin-2-yl)propyl)amino)quinoline-3-carbonitrile]", "values": [{"measurement": "IC50", "setting": "[1]", "value": 0.028, "unit": "µM"}, {"measurement": "EC50", "setting": "[2]; [3]", "value": "≥ 1", "unit": "µM"}]}
{"molecule": "CC(C)(C)CNc1c(C#N)cnc2c(F)cc(N[C@H](c3cn(C4(C(F)(F)F)CC4)nn3)c3ccccc3Cl)cc12", "note": "[Example 1017, (S)-6-(((2-chlorophenyl)(1-(1-(trifluoromethyl)cyclopropyl)-1H-1,2,3-triazol-4-yl)methyl)amino)-8-fluoro-4-(neopentylamino)quinoline-3-carbonitrile]", "values": [{"measurement": "IC50", "setting": "[1]", "value": 0.085, "unit": "µM"}, {"measurement": "EC50", "setting": "[2]; [3]", "value": "≥ 1", "unit": "µM"}]}
{"molecule": "[2H][C@](Nc1cc(C#N)c2ncc(C#N)c(NC3CCCC3(C)C)c2c1)(c1ccc(F)cc1)c1cn(C2(C(F)(F)F)CC2)nn1", "note": "(stereo partly drawn) [Example 1018, 4-((2,2-dimethylcyclopentyl)amino)-6-(((S)-(4-fluorophenyl)(1-(1-(trifluoromethyl)cyclopropyl)-1H-1,2,3-triazol-4-yl)methyl-d)amino)quinoline-3,8-dicarbonitrile]", "values": [{"measurement": "IC50", "setting": "[1]", "value": 0.022, "unit": "µM"}, {"measurement": "EC50", "setting": "[2]; [3]", "value": 0.326, "unit": "µM"}]}
